The source made the active and inactive calls. No cut-off for these calls is given here.
Assays:
Rattus norvegicus [1] = assay: Antiinflammatory activity in rat assessed as inhibition of carrageenin-induced foot edema at 33 mg/kg, po; assay type: functional, organism-based; design: dose 33 mg/kg
[2] = Ionization constant, pKa of the compound; assay type: physicochemical
Rattus norvegicus [3] = assay: Antiinflammatory activity in rat assessed as inhibition of carrageenin-induced foot edema at 100 mg/kg, po; assay type: functional

SMILES	pKa [2]	inhibition (Rattus norvegicus [1])	inhibition in vivo at 100 mg/kg (Rattus norvegicus [3]) [%]
O=C(Nc1ccc(Cl)cc1)C1CN(c2ccccc2)C(=O)C1=O (stereo unspecified)	–	Active	–
CN1CC(C(=O)Nc2ccc(C(F)(F)F)cc2)C(=O)C1=O (stereo unspecified)	–	Active	–
O=C(Nc1ccccc1C(F)(F)F)C1CN(c2ccccc2)C(=O)C1=O (stereo unspecified)	5.87	Active	–
O=C(Nc1ccc(C(F)(F)F)cc1)C1CN(c2ccccc2)C(=O)C1=O (stereo unspecified)	–	Active	–
O=C(Nc1ccccc1Cl)C1CN(c2ccccc2)C(=O)C1=O (stereo unspecified)	–	Active	–
CN1CC(C(=O)Nc2ccc(Cl)cc2)C(=O)C1=O (stereo unspecified)	5.51	Active	–
COc1ccc(NC(=O)C2CN(c3ccccc3)C(=O)C2=O)cc1 (stereo unspecified)	–	Active	–
CN1CC(C(=O)Nc2ccc(F)cc2)C(=O)C1=O (stereo unspecified)	5.55	Active	–
CC(=O)Oc1ccccc1C(=O)O [ASPIRIN]	–	–	50
COc1ccccc1NC(=O)C1CN(c2ccccc2)C(=O)C1=O (stereo unspecified)	6.19	Active	–

Further lines, with some results ahead:

pKa [2]	SMILES	inhibition (Rattus norvegicus [1])	inhibition in vivo at 100 mg/kg (Rattus norvegicus [3]) [%]
6.49	CCOC(=O)c1ccccc1NC(=O)C1CN(C)C(=O)C1=O (stereo unspecified)	Active	–
5.79	Cc1ccc(NC(=O)C2CN(C)C(=O)C2=O)cc1 (stereo unspecified)	Active	–
5.84	COc1ccc(NC(=O)C2CN(C)C(=O)C2=O)cc1 (stereo unspecified)	Active	–
5.86	CN1CC(C(=O)Nc2ccccc2)C(=O)C1=O (stereo unspecified)	Active	–
5.58	O=C(Nc1ccccc1)C1CN(c2ccccc2)C(=O)C1=O (stereo unspecified)	Active	–
6.08	COc1ccccc1NC(=O)C1CN(C)C(=O)C1=O (stereo unspecified)	Active	–
